Values joined by “and” are separate entries in the source; they are usually repeats but may differ in a detail not shown here. Equal entries are not always repeated. Inconclusive results and toxic doses are left out. How the source made its calls: active means survival T/C of 150% or more; inactive means T/C below 125% in these data. Non-standard residues stand in square brackets, D forms with d. Residues, ends and D or L forms follow the SMILES beside them. ξ: configuration not given here. *: point of attachment. Boc = CC(C)(C)OC(=O)*; ξP = O=C(O)C1CCCN1
Tested on: CD2F1 mice, L1210 leukemia ip, survival T/C
Assay: NCI In Vivo Anticancer Drug Screen. Data for tumor model L1210 Leukemia (intraperitoneal) in CD2F1 (CDF1) mice
Settings: higher = longer survival
Outline: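 Read-out first: treated-group measurement over vehicle-control measurement, expressed as a ratio. Animals bore a transplanted tumor line and were dosed with compound or vehicle.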

[1] = endpoint: mean survival time, dose: 100.0 mg/kg/injection, schedule: Q01DX001 (ip), vehicle: saline
[2] = endpoint: mean survival time, dose: 100.0 mg/kg/injection, schedule: Q04DX003 (ip), vehicle: saline
[3] = endpoint: mean survival time, dose: 200.0 mg/kg/injection, schedule: Q01DX001 (ip), vehicle: saline
[4] = endpoint: mean survival time, dose: 200.0 mg/kg/injection, schedule: Q04DX003 (ip), vehicle: saline
[5] = endpoint: mean survival time, dose: 400.0 mg/kg/injection, schedule: Q01DX001 (ip), vehicle: saline
[6] = endpoint: mean survival time, dose: 400.0 mg/kg/injection, schedule: Q04DX003 (ip), vehicle: saline
[7] = endpoint: mean survival time, dose: 25.0 mg/kg/injection, schedule: Q01DX009 (ip), vehicle: saline
[8] = endpoint: mean survival time, dose: 50.0 mg/kg/injection, schedule: Q01DX009 (ip), vehicle: saline
[9] = endpoint: mean survival time, dose: 100.0 mg/kg/injection, schedule: Q01DX009 (ip), vehicle: saline with Tween-80
[10] = endpoint: mean survival time, dose: 50.0 mg/kg/injection, schedule: Q01DX009 (ip), vehicle: saline with Tween-80
[11] = endpoint: mean survival time, dose: 200.0 mg/kg/injection, schedule: Q01DX009 (ip), vehicle: saline with Tween-80
[12] = endpoint: mean survival time, dose: 400.0 mg/kg/injection, schedule: Q01DX009 (ip), vehicle: saline with Tween-80
[13] = endpoint: mean survival time, dose: 100.0 mg/kg/injection, schedule: Q04DX003 (ip), vehicle: saline with Tween-80
[14] = endpoint: mean survival time, dose: 200.0 mg/kg/injection, schedule: Q04DX003 (ip), vehicle: saline with Tween-80
[15] = endpoint: mean survival time, dose: 400.0 mg/kg/injection, schedule: Q04DX003 (ip), vehicle: saline with Tween-80

Measured: T/C

OCC1OC(n2ncc3c2N=CN2CCN=C32)C(O)C1O (centres undefined)
inactive: endpoint: mean survival time, dose: 12.5 mg/kg/injection, schedule: Q01DX009 (ip), vehicle: water 95 % of control | endpoint: mean survival time, dose: 25.0 mg/kg/injection, schedule: Q01DX009 (ip), vehicle: water 98 % of control | endpoint: mean survival time, dose: 50.0 mg/kg/injection, schedule: Q01DX009 (ip), vehicle: water 102 % of control | endpoint: mean survival time, dose: 100.0 mg/kg/injection, schedule: Q01DX009 (ip), vehicle: water 95 % of control | endpoint: mean survival time, dose: 200.0 mg/kg/injection, schedule: Q01DX009 (ip), vehicle: water 95 % of control

CS(=O)(=O)OCC1C(COS(C)(=O)=O)N(S(C)(=O)=O)S(=O)N1S(C)(=O)=O (centres undefined)
inactive: [1] 100 % of control | [2] 111 % of control | [3] 95 % of control | [4] 108 % of control | [5] 94 % of control | [6] 91 % of control

C(CCSC1=NCCN1)CCSC1=NCCN1
inactive: [7] 97 % of control | [8] 103 % of control | endpoint: mean survival time, dose: 100.0 mg/kg/injection, schedule: Q01DX009 (ip), vehicle: saline 100 % of control

Cc1nc2[nH]c(=O)n(O)c(=O)c2s1
inactive: endpoint: mean survival time, dose: 75.0 mg/kg/injection, schedule: Q01DX001 (ip), vehicle: other 102 % of control | endpoint: mean survival time, dose: 150.0 mg/kg/injection, schedule: Q01DX001 (ip), vehicle: other 100 % of control | endpoint: mean survival time, dose: 300.0 mg/kg/injection, schedule: Q01DX001 (ip), vehicle: other 86 % of control

NC(C=O)C(O)C(O)C(O)CO (centres undefined)
inactive: endpoint: mean survival time, dose: 100.0 mg/kg/injection, schedule: Q04DX002 (ip), vehicle: saline 97 % of control | endpoint: mean survival time, dose: 200.0 mg/kg/injection, schedule: Q04DX002 (ip), vehicle: saline 97 % of control | endpoint: mean survival time, dose: 400.0 mg/kg/injection, schedule: Q04DX002 (ip), vehicle: saline 97 % of control

CCCCCC(C)N (centres undefined)
inactive: endpoint: mean survival time, dose: 12.5 mg/kg/injection, schedule: Q01DX009 (ip), vehicle: saline sonified 101 % of control | endpoint: mean survival time, dose: 12.5 mg/kg/injection, schedule: Q04DX003 (ip), vehicle: saline 104 % of control | endpoint: mean survival time, dose: 25.0 mg/kg/injection, schedule: Q01DX009 (ip), vehicle: saline sonified 98 % of control | endpoint: mean survival time, dose: 25.0 mg/kg/injection, schedule: Q04DX003 (ip), vehicle: saline 103 % of control | endpoint: mean survival time, dose: 50.0 mg/kg/injection, schedule: Q01DX009 (ip), vehicle: saline sonified 107 % of control | endpoint: mean survival time, dose: 50.0 mg/kg/injection, schedule: Q04DX003 (ip), vehicle: saline 97 % of control

COc1ccc(C(=O)NC[n+]2ccccc2)cc1
inactive: [2] 109 % of control

COC(=O)CNC(=O)C1CCCN1C(=O)OC(C)(C)C (centres undefined) (Boc-[ξP]-Gly-OMe)
inactive: [2] 94 % of control | [4] 97 % of control | [6] 107 % of control

C=C(Cl)CN(CC)CCO
inactive: [9] 103 % of control

O=c1cccc[nH]1 (tested in a mixture with another compound)
inactive: [10] 108 % of control | [2] 97 % of control | [4] 97 % of control

O=[N+]([O-])CS(=O)(=O)N1CCOCC1
inactive: [1] 103 % of control | [3] 106 % of control | [5] 110 % of control

CCCCCCCCCCCCCCCCCCc1ccc(O)cc1O
inactive: [9] 96 % of control | [11] 101 % of control | [12] 104 % of control

NC(CC(=O)CCl)C(=O)O (centres undefined)
inactive: endpoint: mean survival time, dose: 6.25 mg/kg/injection, schedule: Q04DX003 (ip), vehicle: saline 120 % of control | endpoint: mean survival time, dose: 37.5 mg/kg/injection, schedule: Q04DX003 (ip), vehicle: saline 109 % of control | endpoint: median survival time, dose: 10.0 mg/kg/injection, schedule: Q01DX001 (ip), vehicle: saline 121 % of control | endpoint: median survival time, dose: 20.0 mg/kg/injection, schedule: Q01DX001 (ip), vehicle: saline 121 % of control | endpoint: median survival time, dose: 30.0 mg/kg/injection, schedule: Q01DX009 (ip), vehicle: saline 122 % of control | endpoint: median survival time, dose: 40.0 mg/kg/injection, schedule: Q01DX001 (ip), vehicle: saline 122 % of control | endpoint: median survival time, dose: 60.0 mg/kg/injection, schedule: Q01DX009 (ip), vehicle: saline 35 % of control

CC(C)(C)C(=O)C(Br)S(=O)(=O)C(Br)(Br)C(=O)C(C)(C)C (centres undefined)
inactive: [9] 95 % of control | [11] 97 % of control | [12] 95 % of control

CCCCCCCCCCC(CCCCCCCCCC)Cc1ccccc1
inactive: [1] 98 % of control | [3] 98 % of control | [5] 93 % of control

CCOC(=O)C1(C2=NC(C)(C)CC(C)O2)CCCCC1 (centres undefined)
inactive: endpoint: mean survival time, dose: 100.0 mg/kg/injection, schedule: Q04DX003 (ip), vehicle: acetone 96 % of control | endpoint: mean survival time, dose: 200.0 mg/kg/injection, schedule: Q04DX003 (ip), vehicle: acetone 90 % of control | endpoint: mean survival time, dose: 400.0 mg/kg/injection, schedule: Q04DX003 (ip), vehicle: acetone 105 % of control

CCN(CC)CCOc1ccc2c(c1)C(=O)c1cc(OCCN(CC)CC)ccc1-2
inactive: endpoint: mean survival time, dose: 12.5 mg/kg/injection, schedule: Q01DX009 (ip), vehicle: saline 95 % of control | [7] 98 % of control | [8] 101 % of control

COc1ccc(CCC(=O)O)cc1OC
inactive: [9] 96 % of control | [13] 98 % of control | [11] 97 % of control | [14] 96 % of control | [12] 92 % of control | [15] 104 % of control

CCOP(=S)(OCC)C(C)(C)C
inactive: endpoint: mean survival time, dose: 100.0 mg/kg/injection, schedule: Q04DX002 (ip), vehicle: saline with Tween-80 107 % of control | endpoint: mean survival time, dose: 200.0 mg/kg/injection, schedule: Q04DX002 (ip), vehicle: saline with Tween-80 103 % of control | endpoint: mean survival time, dose: 400.0 mg/kg/injection, schedule: Q04DX002 (ip), vehicle: saline with Tween-80 95 % of control

Cc1c(O)c(=O)n(-c2ccccc2)n1C
inactive: [13] 96 % of control | [14] 93 % of control | [15] 96 % of control

CC(=O)NC(=S)NC(C)=O
inactive: endpoint: mean survival time, dose: 75.0 mg/kg/injection, schedule: Q04DX003 (ip), vehicle: saline 103 % of control | endpoint: mean survival time, dose: 150.0 mg/kg/injection, schedule: Q04DX003 (ip), vehicle: saline 103 % of control | endpoint: mean survival time, dose: 300.0 mg/kg/injection, schedule: Q04DX003 (ip), vehicle: saline 107 % of control

CSc1nc(Cl)c2cc(C)[nH]c2n1
inactive: endpoint: median survival time, dose: 50.0 mg/kg/injection, schedule: Q01DX005 (ip), vehicle: saline 98 % of control | endpoint: median survival time, dose: 100.0 mg/kg/injection, schedule: Q01DX005 (ip), vehicle: saline 100 % of control | endpoint: median survival time, dose: 200.0 mg/kg/injection, schedule: Q01DX005 (ip), vehicle: saline 94 % of control

CC1(C)C(O)C(C)(C)C1O (centres undefined)
inactive: endpoint: mean survival time, dose: 25.0 mg/kg/injection, schedule: Q01DX009 (ip), vehicle: saline with Tween-80 93 % of control | [10] 98 % of control | [13] 97 % of control

Brc1ccc(N=C=C(c2ccccc2)c2ccccc2)cc1
inactive: [10] 98 % of control | [9] 96 % of control | [13] 92 % of control | [11] 102 % of control | [14] 101 % of control

O=[N+]([O-])c1ccc2[nH]c3c(c2c1)CSCC3
inactive: endpoint: mean survival time, dose: 100.0 mg/kg/injection, schedule: Q01DX009 (ip), vehicle: Klucel (hydroxypropylcellulose) (HPC) 121 % of control | endpoint: mean survival time, dose: 200.0 mg/kg/injection, schedule: Q01DX009 (ip), vehicle: Klucel (hydroxypropylcellulose) (HPC) 97 % of control | endpoint: mean survival time, dose: 400.0 mg/kg/injection, schedule: Q01DX009 (ip), vehicle: Klucel (hydroxypropylcellulose) (HPC) 92 % of control

C=C(C)[C@@H]1CC[C@]2(CO)CC[C@]3(C)[C@H](CC[C@@H]4[C@@]5(C)CC[C@H](O)C(C)(C)[C@@H]5CC[C@]43C)[C@@H]12
inactive: [1] 98 % of control | [3] 98 % of control | [5] 98 % of control

COC12C(COC(N)=O)C3=C(C(=O)C(C)=C(NC(C)C)C3=O)N1CC1NC12 (centres undefined)
inactive: endpoint: mean survival time, dose: 1.5 mg/kg/injection, schedule: Q01DX001 (ip), vehicle: water 96 % of control (2×) and 102 % of control | endpoint: mean survival time, dose: 48.0 mg/kg/injection, schedule: Q01DX001 (ip), vehicle: water 87 % of control

COC(=O)C([NH-])c1ccccc1.COC(=O)C([NH-])c1ccccc1.[Cl][Pt+2][Cl] (centres undefined)
inactive: endpoint: median survival time, dose: 3.12 mg/kg/injection, schedule: Q04DX003 (ip), vehicle: saline 101 % of control | endpoint: median survival time, dose: 6.25 mg/kg/injection, schedule: Q04DX003 (ip), vehicle: saline 100 % of control | endpoint: median survival time, dose: 12.5 mg/kg/injection, schedule: Q04DX003 (ip), vehicle: saline 100 % of control | endpoint: median survival time, dose: 25.0 mg/kg/injection, schedule: Q04DX003 (ip), vehicle: saline 101 % of control | endpoint: median survival time, dose: 50.0 mg/kg/injection, schedule: Q04DX003 (ip), vehicle: saline 101 % of control | endpoint: median survival time, dose: 100.0 mg/kg/injection, schedule: Q04DX003 (ip), vehicle: saline 103 % of control

From PubChem BioAssay AID256 (DTP/NCI, 2004)
